Measured values as given in publication PMC13288968 (ACS chemical neuroscience, 2026).
Several values for one entry are separate records, joined by “and”; a condition that tells them apart may be missing. Identical values can stand only once.

What was measured:
[1] = molecular target: T1, ΔFOSB bound to genomic DNA in hippocampus of APP mice (Mus musculus, UniProt P13346); conditions: three days into the dorsal hippocampus of APP mice; cited from earlier work
T1 sequence (P13346 1-237 isoform P13346-2): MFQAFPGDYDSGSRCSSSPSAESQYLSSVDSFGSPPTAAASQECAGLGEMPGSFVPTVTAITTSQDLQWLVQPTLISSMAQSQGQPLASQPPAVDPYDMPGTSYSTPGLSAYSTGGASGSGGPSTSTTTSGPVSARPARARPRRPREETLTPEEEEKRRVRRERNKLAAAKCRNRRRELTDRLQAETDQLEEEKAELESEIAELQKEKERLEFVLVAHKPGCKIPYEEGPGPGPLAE

[2] = molecular target: T2, ΔFOSB/JUND bZIP redox switch (ΔFOSB Cys172/JUND Cys285) (Mus musculus, UniProt P13346); assay: Redox switch closure of ΔFOSB/JUND bZIP assessed by non-reducing SDS-PAGE; assay type: biochemical
T2 sequence (P13346 153-219 isoform P13346-2): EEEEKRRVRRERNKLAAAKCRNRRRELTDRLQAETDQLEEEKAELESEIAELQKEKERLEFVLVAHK
T2 sequence (P15066 260-326 partner limits assumed): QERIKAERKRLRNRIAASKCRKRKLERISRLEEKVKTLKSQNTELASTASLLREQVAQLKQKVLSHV

[3] = molecular target: T3, ΔFOSB homomer (full-length) (mouse, UniProt P13346-2 2-237); assay: fluorescence polarization
T3 sequence: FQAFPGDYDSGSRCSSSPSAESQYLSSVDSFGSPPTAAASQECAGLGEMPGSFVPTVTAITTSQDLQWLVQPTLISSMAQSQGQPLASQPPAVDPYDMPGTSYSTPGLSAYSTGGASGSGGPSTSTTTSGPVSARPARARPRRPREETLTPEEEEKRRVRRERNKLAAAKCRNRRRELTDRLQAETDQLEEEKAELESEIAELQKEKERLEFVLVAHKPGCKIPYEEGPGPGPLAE

[4] = molecular target: T4, ΔFOSB (full-length);JUND (full-length) (mouse;mouse, UniProt P13346-2;P15066 2-237;2-341, |); assay: fluorescence polarization
T4 sequence 1: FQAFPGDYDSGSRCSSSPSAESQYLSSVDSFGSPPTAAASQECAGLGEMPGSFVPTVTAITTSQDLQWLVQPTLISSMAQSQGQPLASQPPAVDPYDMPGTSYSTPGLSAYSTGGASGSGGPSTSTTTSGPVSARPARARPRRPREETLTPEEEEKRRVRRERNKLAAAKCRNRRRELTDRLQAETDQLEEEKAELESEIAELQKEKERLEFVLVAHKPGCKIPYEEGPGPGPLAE
T4 sequence 2: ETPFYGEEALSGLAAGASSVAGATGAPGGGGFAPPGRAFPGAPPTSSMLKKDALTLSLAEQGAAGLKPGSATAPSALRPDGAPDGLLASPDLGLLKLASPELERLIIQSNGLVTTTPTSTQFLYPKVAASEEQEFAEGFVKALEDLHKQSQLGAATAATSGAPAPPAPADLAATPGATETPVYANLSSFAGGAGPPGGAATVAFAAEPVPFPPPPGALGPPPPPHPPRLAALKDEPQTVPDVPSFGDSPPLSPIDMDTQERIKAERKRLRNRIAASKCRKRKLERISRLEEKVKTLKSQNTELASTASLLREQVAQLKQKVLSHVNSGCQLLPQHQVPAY

Molecule	reduction in number of ΔFOSB-bound AP-1 sites (CUT&RUN) [1]	effect on closure of the redox switch under oxidation ([2]; 500 μM compound, 100 μM diamide, non-reducing SDS-PAGE)	promotion of oxidation / redox switch closure by compound alone ([2]; 0.5 mM compound, no diamide, SDS-PAGE)	binding result [3]	binding result [4]
NC1=NN(c2ccc(Oc3ccccc3)c(S(=O)(=O)O)c2)C(=O)C1 [JPC0661]	60% and ~ 60%	None of the three compounds (YL0441, JPC0661, and QB0365) prevented closure of the redox switch	did not oxidize the protein to induce closure of the redox switch	–	–
TMR-cdk5 (cdk5 oligo) (dsDNA) DNA 1: CGTCGGTGACTCAAAACAC DNA 2: GTGTTTTGAGTCACCGACG	–	–	–	binds	binds
